Here are results for one substance from patent US9814754B2, “Combinations with a backbone-cyclized peptide” (POLYPHOR AG, priority 2012, dated 2017).

Square brackets hold non-standard residues; d marks the D form. dDab = NCC[C@@H](N)C(=O)O; Orn = NCCC[C@H](N)C(=O)O; Dab = NCC[C@H](N)C(=O)O

The test system of the experiment is Pseudomonas aeruginosa clinical isolate PAX11045. Nature of the experiment: Murine pneumonia model, compound 1 in combination with ertapenem (Example 1). Type of experiment: in vivo. As to the method: The efficacy and ED50 of the compound of formula (I) (“compound 1”) in combination with ertapenem was determined against Pseudomonas aeruginosa clinical isolate PAX11045 in a pneumonia model in mice. Colony counts in lung were determined at 20 hours post treatment.
Fresh overnight colonies of PAX11045 from a 5% Horse Blood Agar plate were suspended in 0.9% sterile saline to approximately 10^8 CFU/ml and further diluted to approximately 5×10^7 CFU/ml. Female mice (DBA/2, outbred, 18-22 g, Charles River) were anesthetized with 0.1 ml of Zoletil and inoculated via the nose with a pipette with 0.05 ml of the bacteria suspension containing approximately 10^6 CFU. 4 hours after inoculation, the mice were treated orally with 45 μl neurophen (20 mg ibuprofen/ml corresponding to approximately 30 mg/kg) as pain relief.
1 g of ertapenem (Invanz™, MSD Denmark Aps) was dissolved in 10 ml 0.9% sterile saline to a concentration of 100 mg/ml and further diluted with saline to 5 mg/ml. The mice were treated subcutaneously with 0.2 ml in the neck region with a single dose at 3 hours post infection corresponding to 50 mg/kg on the basis of a mean animal weight of 20 g.
The mice were treated subcutaneously with 0.2 ml in the neck region with a single dose at 4 hours post infection with a dose calculation based on a mean animal weight of 20 g.
Colony counts were determined post inoculation at 4 hours (untreated mice) and 24 hours (treated and vehicle-only treated mice). Immediately after the mice were sacrificed, the lungs were collected and frozen at −20° C. After thawing, the organs were homogenized in 1 ml 0.9% saline. Each sample was then 10 fold diluted in saline and 20 μl spots were applied on blood agar plates. All agar plates were incubated 18-24 hours at 35° C. in ambient air.
The CFU/ml in the inoculum was determined to 7.65 log10 CFU/ml corresponding to 6.35 log10 CFU/mouse.
At 4 hours after infection the mean log10 CFU/lung was 5.14 and the CFU level remained at a similar level after 24 hours in the vehicle-only group.

Setting [1] is: in presence of 50 mg/kg ertapenem, murine lungs.

For “cyclo(TWI[Dab][Orn][dDab][Dab]W[Dab][Dab]AS[dP]P) [compound 1]”, the “effect on bacterial loads” value (2.75 mg/kg alone, lung, p<0.001) is recorded as “significant effect on reducing the bacterial loads”. The “CFU levels compared to vehicle treatment” value (combination of compound 1 (dose series) and ertapenem 50 mg/kg, lung, p<0.01-p<0.001) is “concentration dependent significant reduction of the CFU levels”. Under “compound 1 s.c. in presence of 50 mg/kg ertapenem (s.c., 3 h post infection), murine lungs”, the Top level is given as −0.34 log10 CFU/ml. Further, under setting [1], the “1 log killing dose” value is listed as 1.14 mg/kg, the “2 log killing dose” value is reported as 1.48 mg/kg, the Bottom level is −2.32 log10 CFU/ml and the Emax amounted to 1.98 log10 CFU/ml. For the same substance, the Static dose under setting [1] is reported as 0.63 mg/kg. For the same substance, the ED50 (commonly the midpoint of the dose-response relation) (in presence of fixed dose of 50 mg/kg ertapenem, murine lungs) turned out to be 1.24 mg/kg.
